Results from patent publication US5672470A, “Microbial process for detection of toxic substances” (priority 1994, dated 1997).
Values after ≈ are worked out from the molar mass of the structure shown. Values joined by “and” are separate entries in the source; they are usually repeats but may differ in a detail not shown here. Identical values can stand only once. Like-named read-outs stand apart in the source and are kept apart here.

Key:
[1] = tested on: bacteria phosphotransferase system (PTS) of E. coli mutant 1219bgl+; experiment: microbe, parasite or virus in culture; assay type: cell-based; conditions: for IC50: pH 6.5, read-out: EC50
Description: Since the phosphotransferase system for the bacterial cell is an essential transport system for the reception of extracellular carbohydrates, a possible inhibition or adverse effect of the participating enzymes should be noticed to cause a reduction in the carbohydrate transport, that is the PTS constitutes a potential possibility for the detection of toxic substances in microorganisms. […] Said analog is of such a nature that it, in phosphorylated form after the cell transport, can be hydrolyzed by an enzyme in the bacterial cell under the release of a substance susceptible to analysis. If, for instance, 2-nitrophenyl-β-D-glucoside is used as substrate analog, this will be channeled by the PTS under phosphorylation into a bacterial cell, where the ONP-Glc-6-P is broken down hydrolytically by the inducible 6-phospho-β-glucosidase B to Glc-6-P and 2-nitrophenyl. The released 2-nitrophenyl can then, by means of photometry, be quantitatively measured as phenolate-anion after a defined time span. Additionally, with E. coli mutant 1219bgl+ a bacterium is present that is characterized by increased β-glycoside activity, yet is not transformed through genetic engineering nor is pathogenic, which is an important prerequisite for harmless work with bacteria.
The test occurs with a total reaction volume of 500 μl in Eppendorf cups, the O.D.578 of the bacteria suspension amounting to 3.0.
The E. coli cultures of the mutant 1219 bgl+, preserved at -20° C., are first thawed to be reactivated during 10 min. at room temperature. They are then suspended in 250 μl of 50 mM buffer and together with the appropriate test solution and distilled water brought to a volume of 480 μl . This suspension is then pre-incubated over a time span of 10-15 minutes at 37° C. After that, the reaction is started by adding 20 μl of ONP-glucose (50 mM) (equivalent to a final concentration in the reaction batch of 2 mM). The reaction mixture is incubated over a time span of 5 minutes at 37° C. After the end of this reaction time the reaction is terminated by adding 1 ml of Na2 CO3 (0.5M). After a 2 minute centrifugation at 17,000×g the substrate transformations of the tested bacteria suspensions are photometrically determined at 405 nm.
The evaluation of the PTS test with ONP-glycosides is done by means of the toxicological characteristic quantity of the "efficient concentration", (the EC value). It is hereinunder understood with such a concentration of added toxic substance that a measurable parameter of an organism will be inhibited to a certain extent within a freely defined time span. The percentage of adverse effect of the parameter to be measured is indicated by the attached index.
The conversion of the registered percentage inhibitory values into EC values is carried out with the help of the gamma method (Johnson, F. H., Eyring, H. and Stover, B. J., 1974; The theory of rate processes in biology and medicine, John Wiley & Sons, New York: 1-385). With the aid of the O.D.405, registered in the PTS inhibition test, the quotient is formed from the ONP-glycoside cleavage output and the remaining ONP-glycoside cleavage. [formula] O.D.405 : Substrate transformation without toxic substance solution. D O.D.405 : Output of the substrate transformation after incubation with the toxic substance solution.
The gamma values hereby obtained are used against the employed concentration of toxic substance, in a double logarithmic representation. […]

[2] = tested on: Vibrio fischen; conditions: cited from earlier work
[3] = tested on: E. coli mutant 1219bgl+ PTS; experiment: ONP-glycoside cleavage in dependency on substrate concentration (Lineweaver-Burk); assay type: cell-based; conditions: Lineweaver-Burk process
Experimental: Looking more closely into the ONP-glycoside cleavage in dependency on substrate concentration, we find the presence of saturation kinetics without substrate inhibition (FIG. 4). […] Since, when increasing the substrate concentration, there was no further velocity increase to be registered, the dosage of the substrate to be used, according to the invention, takes place in accord with a cost and efficiency weighting at 2 mM. When performing the PTS inhibition test, in accordance with the invention, it also turned out that the sensitivity of the test is clearly dependent on the kind of buffer used. It was particularly conspicuous that phosphate buffer has a clearly stimulating effect on the ONP-glycoside hydrolysis, whereas, on the other hand, when performing the inhibition test with heavy metals as toxic substances, the strongest inhibitory effects were to be registered when using the HEPES buffer. It should however be taken into account that a phosphate buffer in the presence of heavy metal salts is less suitable due to solubility problems that then might occur. Therefore when testing heavy metals, the HEPES buffer should preferably be chosen.

[4] = heavy metal ions as chlorides, HEPES buffer pH 6.5, 37° C., 5 min reaction, 5 min
[5] = heavy metal ions as chlorides, HEPES buffer pH 6.5, 37° C., 5 min reaction, read-out: EC50
[6] = reaction time 10 min, Beckmann, 1980
[7] = Escherichia coli, pH 6.5, read-out: EC10, organic solvents, 50 mM phosphate buffer pH 6.5
[8] = organic solvents, 50 mM phosphate buffer pH 6.5

## [Cd+2] [Cd^2+]
[1]; [4]
  EC50: 19 ppm
[1]; [5]
  EC50: 169 µM
[2]; [6]
  Bioluminescent Inhibition Test EC50 (ppm): 131 ppm

## ClC(Cl)Cl [Chloroform, chloroform]
[1]; Escherichia coli, 5 min
  IC50: 1900 µg/mL (≈ 15.9 mM)
[1]; Escherichia coli, pH 6.5
  EC50: 15900 µM
[1]; [7]
  IC10: 720 µg/mL and 6 µM
[2]; vibrio fischeri luminescence
  Bioluminescent Inhibition Test EC50 (ppm): 1,168

## [Cr+3] [Cr^3+]
[1]; [4]
  EC50: 16 ppm

## [Cu+2] [Cu^2+]
[1]; [4]
  EC50: 11 ppm
[1]; [5]
  EC50: 173 µM
[2]; [6]
  Bioluminescent Inhibition Test EC50 (ppm): 16 ppm

## ClCCCl [Dichloroethane, dichloroethane]
[1]; at approx. 3,500 ppm (approximative 35 μM as printed), phosphate buffer pH 6.5, no extrapolation to gamma values possible
  inhibition of ONP-glucose transformation: about 30%

## C1COCCO1 [Dioxan, dioxan]
[1]; Escherichia coli, 5 min
  IC50: 30000 µg/mL (≈ 340 mM)
[1]; [7]
  IC10: 10000 µg/mL and 114 µM
[1]; [8]
  EC10: approx. 10,000 ppm

## CCO [Ethanol, ethanol]
[1]; Escherichia coli, 5 min
  IC50: 33000 µg/mL (≈ 716 mM)
[1]; [7]
  IC10: 10500 µg/mL and 288 µM
[1]; [8]
  EC10: approx. 10,500 ppm
[2]; vibrio fischeri luminescence
  Bioluminescent Inhibition Test EC50 (ppm): 31,000

## [Hg+2] [Hg^2+]
[1]; HEPES buffer pH 6.5
  maximal inhibition: about 70%
[1]; [4]
  EC50: 2.1 ppm
[1]; [5]
  EC50: 10.3 µM
[2]; reaction time 5 min, Bulich et al., 1981
  Bioluminescent Inhibition Test EC50 (ppm): 0.065 ppm

## [Ni+2] [Ni^2+]
[1]; HEPES buffer pH 6.5
  maximal inhibition: about 70%
[1]; [4]
  EC50: 4.5 ppm
[1]; [5]
  EC50: 76.6 µM

## O=[N+]([O-])c1ccccc1O[C@@H]1O[C@H](CO)[C@@H](O)[C@H](O)[C@H]1O [ONP-glycoside, 2-nitrophenyl-β-D-glucoside]
[3]
  Km: 2000 µM
  maximal reaction velocity: 42 nmol/min/mL

## [Pb+2] [Pb^2+]
[1]; [4]
  EC50: 67 ppm
[1]; heavy metal ions as chlorides, HEPES buffer pH 6.5, 37° C., 5 min reaction, listed as Pb^+
  EC10: 120 µM
[1]; [5]
  EC50: 322 µM
[2]; reaction time 30 min, Beckmann, 1981
  Bioluminescent Inhibition Test EC50 (ppm): 0.4 ppm

## Oc1ccccc1 [Phenol, phenol]
[1]; Escherichia coli, 5 min
  IC50: 1400 µg/mL (≈ 14.9 mM)
[1]; Escherichia coli, pH 6.5
  EC50: 14900 µM
[1]; [7]
  IC10: 350 µg/mL and 3.7 µM
[2]; vibrio fischeri luminescence
  Bioluminescent Inhibition Test EC50 (ppm): 25

## CCCCCCCCCCCCOS(=O)(=O)O [SDS]
[1]; Escherichia coli, 5 min
  IC50: 13 µg/mL (≈ 0.0488 mM)
[1]; Escherichia coli, pH 6.5
  EC50: 45.1 µM
[1]; Escherichia coli, pH 6.5, read-out: EC10, detergents, 50 mM HEPES buffer pH 6.5
  IC10: 5.5 µg/mL and ~19 µM

## Cc1ccccc1 [Toluene, toluene]
[1]; Escherichia coli, 5 min
  IC50: 35 µg/mL (≈ 0.38 mM)
[1]; Escherichia coli, pH 6.5
  EC50: 380 µM

## [Zn+2] [Zn^2+]
[1]; [4]
  EC50: 8 ppm
[1]; [5]
  EC50: 122 µM
[2]; [6]
  Bioluminescent Inhibition Test EC50 (ppm): 25.4 ppm

## Triton X-100
[1]; detergents, 50 mM HEPES buffer pH 6.5, 5 min
  EC50: 180 ppm
